Results published in patent publication US9586896B2, “Nitroxyl donors with improved therapeutic index” (Cardioxyl Pharmaceuticals, Inc., priority 2013, dated 2017).

Tests used:
[1] = In vitro stability (half-life) in PBS pH 7.4; assay type: physicochemical; conditions: pH 7.4, aerated PBS pH 7.4, 37° C., read-out: T1/2 (minutes) PBS
Method: (§1) Compound (1), compound (2), and CXL-1020 were tested for their stability in plasma. The assay system comprised (i) PBS, or plasma from rat, dog or human (at least 3 donors, male, pooled) at pH 7.4, and (ii) for tests conducted in plasma, an anticoagulant (sodium heparin or sodium citrate). Each test compound (5 μM) was incubated in PBS or plasma at 37° C. on a THERMOMIXER® with shaking Three samples (n=3) were taken at each of seven sampling time points: 0, 10, 30, 60, 90, 180 and 360 minutes. The samples were immediately combined with 3 volumes (i.e., 3 times the volume of PBS or plasma) of acetonitrile containing 1% formic acid and an internal standard to terminate the reaction. AB SCIEX API 3000 LC-MS/MS analysis of the test compounds was performed without a standard curve. Half-lives (T1/2) of the test compounds were determined from graphs of the percent remaining values using the peak area response ratio.

[2] = In vitro stability (half-life) in human plasma; assay type: in vitro ADME; conditions: male, pH 7.4, human plasma pH 7.4, anticoagulant, 37° C., read-out: T1/2 (minutes) Human
Method: as §1

[3] = system: heart failure canines (tachycardia-pacing model); assay: Hemodynamic efficacy in heart failure canines (tachycardia-pacing model); assay type: in vivo, beagle dogs; conditions: for hemodynamic activity relative to CXL-1020: both normal and failing canine models; for hemodynamic effects produced: normal and failing canine models, FIGS. 1-2
Method: The cardiovascular effects of nitroxyl donors were examined by means of pressure-volume (PV) curve (loops) analysis in conscious, sling-restrained beagle dogs. Animals were allowed free access to drinking water and a commercial canine diet under standard laboratory conditions. Fluorescent lighting was provided via an automatic timer for approximately 12 hours per day. On occasion, the dark cycle was interrupted intermittently due to study-related activities. Temperature and humidity were monitored and recorded daily and maintained to the maximum extent possible between 64° F. and 84° F. and 30% to 70%, respectively. The dogs were acclimated for a period of at least 1 week prior to surgery. Following surgery and recovery the animals were acclimated to sling restraint for a period up to 4.5 hours. Animals were fasted overnight prior to surgery.
Once a stable (surgical) plane of anesthesia had been established, a left-thoracotomy was performed (under strict aseptic conditions) and each animal was chronically instrumented with sono-micrometry crystals providing left-ventricular (LV) dimensions/volume. Additionally, a fluid-filled catheter and a solid-state monometer were placed in the left ventricle for pressure monitoring. A fluid-filled catheter was placed in the right ventricle (RV) and the aorta (Ao) for pressure monitoring/test article administration. […] The catheters/wires were aseptically tunneled and externalized between the scapulae. Over the course of the study, fluid-filled catheters were regularly (at least once weekly) flushed with a locking-solution in order to prevent both clotting and bacterial growth (2-3 mL of Taurolidine-Citrate solution, TCS-04; Access Technologies).
Following the cardiovascular instrumentation, the right jugular vein was carefully exposed and cannulated with a bipolar pacing lead/catheter (CAPSUREFIX® Novus; Medtronic). Under fluoroscopic guidance, this pacing lead was advanced normograde into the right ventricle and actively affixed (screwed in) to the apical endocardium. The proximal end of the lead was secured to the pacing device (Kappa 900; Medtronic). Subsequently, the pacemaker was placed/secured in a subcutaneous pocket in the neck.
Following a recovery from surgery and/or sufficient washout period from dosing with a nitroxyl donor, animals were subjected to a 3-week overdrive pacing (210 ppm) protocol aimed to trigger left-ventricular dysfunction/remodeling consistent with the heart failure syndrome. In short, via the implanted pacemaker/right-ventricular lead, the ventricle(s) was asynchronously and continuously paced at 210 beats per minute (bpm). Left-ventricular remodeling (and heart failure induction) were confirmed by both echocardiographic (e.g., ejection fraction (EF)) decrease from about 60% to a target of about 35%, left ventricular (LV) dilatation) and neuro-humoral (e.g., N-terminal pro-brain natriuretic peptide (NT proBNP) elevation to greater than 1800 pM/L from a baseline of about 300 pM/L) changes after approximately 3 weeks of pacing. Echocardiographs and blood samples were collected in the absence of pacing (for at least 15 min).
The animals (normal or heart failure) were studied during treatment with both vehicle (control) and a nitroxyl donor (either CXL-1020, a compound of formula (1) or a compound of formula (2)). At each dosing period, conscious sling-restrained animals were continuously monitored for up to two to three hours. Following hemodynamic stabilization, infusion of the vehicle was started. […] Infusion of the vehicle was continued and after 30 min another (baseline) set of hemodynamic data was collected. Following collection of baseline hemodynamic data, infusion of the nitroxyl donor compound being tested was initiated and derived hemodynamic/functional parameters were obtained/performed at up to four (4) time points selected from the following: at 30, 60, 90, 120, and 180 minutes after the onset of vehicle/test compound infusion. […]

dogs = assay: Microscopic pathology of the vasculature, canine implanted central catheter 72 hour model; assay type: in vivo, beagle dogs; conditions: edema, vascular/perivascular inflammation, hemorrhage, molar equivalent dose rates to CXL-1020
Method: Confirmation was obtained through evaluating the nitroxyl donors through detailed histopathology of the vasculature at the site of insertion of into the femoral vein (15 cm distal to the catheter tip), along the catheter track to the catheter tip, and past the tip downstream 20 cm.
A composite lab score was calculated from the sum of these findings scores. In FIG. 5, the cumulative histology composite lab score ranges from 0-2 (low severity) to 11-12 (high severity). […] The NOAEL values determined based on these microscopic pathology markers for a series of nitroxyl donors, expressed in molar equivalent dose rates (μg/kg/min) to CXL-1020, are provided in Table 8.

[4] = heart failure canines, i.v. infusion, dose rate 75 (μmol/kg/min [sic])

SMILES | half-life at 5 μM [1] | half-life at 5 μM [2] | hemodynamic activity relative to CXL-1020 [3] | hemodynamic effects produced [3] | NOAEL (μg/kg/min), microscopic pathology markers (dogs) | HR (% Change from Baseline) ([3]; heart failure canines, i.v. infusion, dose rate 100 (μmol/kg/min [sic])) | EDV (% Change from Baseline) [3, 4] | ESP (% Change from Baseline) [3, 4] | ESPVR (% Change from Baseline) [3, 4] | HR (% Change from Baseline) [3, 4] | PRSW (% Change from Baseline) [3, 4] | SW (% Change from Baseline) [3, 4] | Tau (% Change from Baseline) [3, 4]
CS(=O)(=O)c1cccc(S(=O)(=O)NO)c1 [(2), N-Hydroxy-3-methanesulfonylbenzene-1-sulfonamide] | ~50 min | ~37 min | comparable hemodynamic activity to CXL-1020 | significant enhancement of inotropy and lusitropy, and modest reductions in blood pressure | ≧180 μg/kg/min |  |  |  |  |  |  |  | 
CS(=O)(=O)c1ccccc1S(=O)(=O)NO [CXL-1020, N-hydroxy-2-methanesulfonylbenzene-1-sulfonamide] | 2 min | 2 min |  |  | <3 μg/kg/min | −0.23 ± 2.25% |  |  |  |  |  |  | 
Cc1ccc(S(=O)(=O)NO)o1 [Compound (1), N-Hydroxy-5-methylfuran-2-sulfonamide] | ~68 min | ~65 min | comparable hemodynamic activity to CXL-1020 | significant enhancement of inotropy and lusitropy, and modest reductions in blood pressure | ≧180 μg/kg/min |  | −9 ± 2% | −17 ± 1% | 29 ± 1% | −6 ± 2% | 22 ± 1% | −9 ± 2% | −16 ± 4%
